Data from ChEMBL document CHEMBL5154858, “Pocket-to-Lead: Structure-Based De Novo Design of Novel Non-peptidic HIV-1 Protease Inhibitors Using the Ligand Binding Pocket as a Template” (J Med Chem, 2022).

How the values were obtained:
[1] = target: Human immunodeficiency virus type 1 protease (Human immunodeficiency virus 1, UniProt Q72874); experiment: Inhibition of wild type HIV1 protease expressed in Escherichia coli BL21 DE3 assessed as cleavage of fluorogenic substrate using EDANS-RESGIFLETSKR-DABCYL preincubated for 15 mins with compound followed by substrate addition and measured after 60 mins by microplate reader analysis
[2] = system: Human immunodeficiency virus 1; experiment: Antiviral activity against HIV-1 IIIB infected in human MT4 cells assessed as inhibition of virus-induced cell death preincubated for 1 hr with compound followed by viral infection measured after 5 days by MTT assay; assay type: functional, organism-based; conditions: Human immunodeficiency virus 1, IIIB

SMILES	IC50 [1] [µM]	EC50 [2] [µM]
COc1ccc(CN2C[C@H](O)[C@@](CCC(C)C)(c3ccc(S(C)(=O)=O)cc3OC(C)C)C2=O)cc1 (mixture of isomers)	0.082	11
COc1ccc(CN2C[C@@H](O)[C@@](Cc3ccc(F)cc3)(c3ccc(S(C)(=O)=O)cc3)C2=O)cc1 (mixture of isomers)	77	
CCC[C@]1(c2ccc(S(C)(=O)=O)cc2)C(=O)N(Cc2ccc(OC)cc2)C[C@@H]1O (mixture of isomers)	32	
COc1ccc(CN2C[C@H](O)[C@@](CCC(C)C)(c3ccc(S(C)(=O)=O)cc3)C2=O)cc1 (mixture of isomers)	2	> 20
COc1ccc(CN2C[C@H](O)[C@@](Cc3ccc(F)cc3)(c3ccc(S(C)(=O)=O)cc3)C2=O)cc1 (racemic)	54	
COc1ccc(CN2C[C@H](O)[C@@](CCC(C)C)(c3ccc(S(C)(=O)=O)cc3O[C@@H](C)CO)C2=O)cc1 (mixture of isomers)	0.0071	0.86
COc1ccc(CN2C[C@H](O)[C@@](CC(C)C)(c3ccc(S(C)(=O)=O)cc3)C2=O)cc1 (mixture of isomers)	34	
